Assay results taken from the CheMixHub ionic liquid set.

Assay: xn = mol fraction of the nth substance listed

CC[n+]1ccn(C)c1.O=S(=O)([O-])O + O=C1O[C@H]([C@@H](O)CO)C(O)=C1O + O
viscosity [mPa·s], 100 kPa
Conditions | 293.15 K | 298.15 K | 303.15 K | 308.15 K | 313.15 K | 318.15 K
x2 = 0, x1 = 0.0009002 | 1.05 | 0.94 | 0.84 | 0.76 | 0.69 | 0.65
x2 = 0, x1 = 0.001799 | 1.07 | 0.95 | 0.85 | 0.77 | 0.7 | 0.64
x2 = 0, x1 = 0.002696 | 1.08 | 0.96 | 0.86 | 0.78 | 0.71 | 0.64
x2 = 0.0002713, x1 = 0.0008999 | 1.05 | 0.95 | 0.84 | 0.76 | 0.7 | 0.65
x2 = 0.0002768, x1 = 0.001798 | 1.08 | 0.96 | 0.86 | 0.78 | 0.71 | 0.65
x2 = 0.000277, x1 = 0.002695 | 1.09 | 0.97 | 0.87 | 0.78 | 0.72 | 0.65
x2 = 0.0005469, x1 = 0.0008997 | 1.06 | 0.96 | 0.85 | 0.77 | 0.71 | 0.66
x2 = 0.0005489, x1 = 0.001798 | 1.08 | 0.96 | 0.87 | 0.78 | 0.72 | 0.66
x2 = 0.0005544, x1 = 0.002694 | 1.1 | 0.98 | 0.88 | 0.79 | 0.72 | 0.66
x2 = 0.0008183, x1 = 0.0008994 | 1.07 | 0.96 | 0.85 | 0.78 | 0.71 | 0.67
x2 = 0.0008262, x1 = 0.001797 | 1.09 | 0.97 | 0.87 | 0.79 | 0.72 | 0.66
x2 = 0.000834, x1 = 0.002693 | 1.1 | 0.98 | 0.88 | 0.8 | 0.73 | 0.67
x2 = 0.00109, x1 = 0.0008992 | 1.07 | 0.97 | 0.86 | 0.78 | 0.72 | 0.67
x2 = 0.0011, x1 = 0.001797 | 1.09 | 0.97 | 0.88 | 0.8 | 0.73 | 0.67
x2 = 0.00111, x1 = 0.002693 | 1.11 | 0.99 | 0.89 | 0.8 | 0.73 | 0.67
x2 = 0.001362, x1 = 0.000899 | 1.08 | 0.97 | 0.86 | 0.79 | 0.72 | 0.68
x2 = 0.001374, x1 = 0.001796 | 1.1 | 0.98 | 0.88 | 0.8 | 0.73 | 0.67
x2 = 0.00139, x1 = 0.002692 | 1.11 | 1 | 0.89 | 0.81 | 0.74 | 0.68
x2 = 0.001633, x1 = 0.0008987 | 1.09 | 0.98 | 0.87 | 0.79 | 0.73 | 0.68
x2 = 0.001648, x1 = 0.001796 | 1.11 | 0.98 | 0.89 | 0.81 | 0.74 | 0.68
x2 = 0.001666, x1 = 0.002691 | 1.12 | 1 | 0.9 | 0.81 | 0.75 | 0.68
x2 = 0.001906, x1 = 0.0008985 | 1.09 | 0.98 | 0.88 | 0.8 | 0.73 | 0.69
x2 = 0.001923, x1 = 0.001795 | 1.11 | 0.99 | 0.9 | 0.81 | 0.74 | 0.68
x2 = 0.001942, x1 = 0.00269 | 1.12 | 1.01 | 0.9 | 0.82 | 0.75 | 0.69

CC[n+]1ccn(C)c1.O=S(=O)([O-])O + O=C([O-])CC(O)(CC(=O)[O-])C(=O)[O-].[Li+].[Li+].[Li+] + O
viscosity [mPa·s], 101 kPa
Conditions | 293.15 K | 298.15 K | 303.15 K | 308.15 K | 313.15 K
x2 = 0, x1 = 0.0006645 | 1.023 | 0.93 | 0.823 | 0.75 | 0.674
x2 = 0, x1 = 0.0007293 | 1.036 | 0.943 | 0.825 | 0.749 | 0.689
x2 = 0, x1 = 0.0009254 | 1.064 | 0.943 | 0.844 | 0.763 | 0.683
